Test results as given in the supplement of paper PMC10307832.

Compound: C=CCNC1=C2C[C@@H](C)C[C@H](OC)[C@H](O)[C@@H](C)/C=C(\C)[C@H](OC(N)=O)[C@@H](OC)/C=C\C=C(/C)C(=O)NC(=CC1=O)C2=O [17-AAG] + CC(=O)Nc1cccc(-n2c(=O)n(C3CC3)c(=O)c3c(Nc4ccc(I)cc4F)n(C)c(=O)c(C)c32)c1 [Trametinib] (partner 0.02 µM)
Test: relative viability (nuclei count vs DMSO), 5 days (fraction); higher = more cells survive
How it was run: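 Lung cancer cell lines in 1536-well plates were dosed by pin tool the day after seeding, either with one drug alone or with a fixed anchor-drug dose plus five library-drug doses (not always all listed) in √10 steps. After 5 days, cells were fixed and their nuclei stained in one step (final 0.05% Triton X-100, 1% formaldehyde, 1 ug/ml Hoechst), then counted on 4× images. Relative viability is the nuclei count in treated wells divided by that in vehicle wells. Values are medians of duplicate plates.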

| Cell Line | relative viability (first compound 0.00128 µM) | relative viability (first compound 0.004048 µM) | relative viability (first compound 0.0128 µM) | relative viability (first compound 0.04048 µM) | relative viability (first compound 0.128 µM) |
| --- | --- | --- | --- | --- | --- |
| 201T | 0.778 | 0.729 | 0.688 | 0.702 | 0.682 |
| A-427 | 0.799 | 0.759 | 0.946 | 0.419 | 0.282 |
| BEN | 1.07 | 1.16 | 1.31 | 1.07 | 0.613 |
| CAL-12T | 0.394 | 0.352 | 0.319 | 0.308 | 0.146 |
| COR-L23 | 0.664 | 0.504 | 0.438 | 0.158 | 0.0809 |
| COR-L 105 | 0.473 | 0.406 | 0.501 | 0.375 | 0.335 |
| ChaGo-K-1 | 0.918 | 0.873 | 0.767 | 0.857 | 0.735 |
| EKVX | 0.341 | 0.306 | 0.289 | 0.127 | 0.117 |
| EMC-BAC-2 | 0.946 | 0.821 | 0.765 | 0.335 | 0.235 |
| EPLC-272H | 0.278 | 0.268 | 0.229 | 0.169 | 0.135 |
| H3255 | 0.597 | 0.556 | 0.544 | 0.31 | 0.21 |
| HARA | 0.893 | 0.598 | 0.81 | 0.66 | 0.149 |
| HCC-15 | 0.415 | 0.416 | 0.286 | 0.214 | 0.13 |
| HCC-44 | 1.04 | 1.01 | 0.988 | 1.05 | 0.804 |
| HCC-78 | 0.744 | 0.593 | 0.71 | 0.663 | 0.359 |
| HCC-366 | 0.399 | 0.389 | 0.0548 | 0.0372 | 0.0284 |
| HCC-827 | 0.508 | 0.508 | 0.502 |  | 0.311 |
| HOP-62 | 0.396 | 0.35 | 0.355 | 0.191 | 0.167 |
| LC-2-ad | 0.974 | 0.954 | 0.875 | 0.408 | 0.223 |
| LCLC-97TM1 | 0.201 | 0.172 | 0.163 | 0.232 | 0.152 |
| LCLC-103H | 0.711 | 0.692 | 0.661 | 0.739 | 0.669 |
| LK-2 | 0.85 | 0.846 | 0.789 | 0.577 | 0.184 |
| LOU-NH91 | 0.795 | 0.747 | 0.584 | 0.434 | 0.387 |
| LU99A | 0.549 | 0.538 | 0.508 | 0.384 | 0.134 |

| Cell Line | relative viability (first compound 0.00128 µM) | relative viability (first compound 0.004048 µM) | relative viability (first compound 0.0128 µM) | relative viability (first compound 0.04048 µM) | relative viability (first compound 0.128 µM) |
| --- | --- | --- | --- | --- | --- |
| LXF-289 | 0.667 | 0.661 | 0.686 | 0.58 | 0.145 |
| NCI-H23 | 0.336 | 0.344 | 0.246 | 0.148 | 0.116 |
| NCI-H322M | 0.512 | 0.547 | 0.452 | 0.536 | 0.403 |
| NCI-H358 | 0.128 | 0.0832 | 0.0659 | 0.0673 | 0.0679 |
| NCI-H441 | 0.454 | 0.439 | 0.148 | 0.132 | 0.0927 |
| NCI-H460 | 0.202 | 0.0484 | 0.0114 | 0.0258 | 0.0229 |
| NCI-H520 | 0.706 | 0.673 | 0.468 | 0.154 | 0.129 |
| NCI-H522 | 0.724 | 0.836 | 0.679 | 0.686 | 0.374 |
| NCI-H596 | 0.841 | 0.852 | 0.767 | 0.704 | 0.308 |
| NCI-H647 | 0.402 | 0.29 | 0.0765 | 0.0969 | 0.0756 |
| NCI-H650 | 0.983 | 1.03 | 0.934 | 0.551 | 0.224 |
| NCI-H661 | 0.588 | 0.533 | 0.522 | 0.295 | 0.23 |
| NCI-H727 | 0.356 | 0.409 | 0.319 | 0.237 | 0.221 |
| NCI-H838 | 0.536 | 0.487 | 0.126 | 0.115 | 0.1 |
| NCI-H1355 | 0.466 | 0.446 | 0.363 | 0.241 | 0.167 |
| NCI-H1395 | 1.09 | 0.984 | 0.807 | 0.448 | 0.368 |
| NCI-H1437 | 0.582 | 0.562 | 0.32 | 0.291 | 0.195 |
| NCI-H1648 |  | 0.541 | 0.463 | 0.368 | 0.219 |
| NCI-H1650 | 0.657 | 0.252 | 0.143 | 0.126 | 0.114 |
| NCI-H1651 | 0.781 | 0.855 | 0.838 | 0.77 | 0.604 |
| NCI-H1666 | 0.858 | 0.826 | 0.639 | 0.575 | 0.481 |
| NCI-H1734 | 0.759 | 0.633 | 0.576 | 0.245 | 0.15 |
| NCI-H1755 | 0.808 | 0.716 | 0.705 | 0.741 | 0.23 |
| NCI-H1792 | 0.483 | 0.337 | 0.216 | 0.0858 | 0.056 |

| Cell Line | relative viability (first compound 0.00128 µM) | relative viability (first compound 0.004048 µM) | relative viability (first compound 0.0128 µM) | relative viability (first compound 0.04048 µM) | relative viability (first compound 0.128 µM) |
| --- | --- | --- | --- | --- | --- |
| NCI-H1793 | 0.36 | 0.318 | 0.273 | 0.18 | 0.142 |
| NCI-H1915 | 0.293 | 0.302 | 0.23 | 0.103 | 0.0681 |
| NCI-H1944 | 0.452 | 0.368 | 0.379 | 0.24 | 0.155 |
| NCI-H1975 | 0.319 | 0.358 | 0.207 | 0.124 | 0.147 |
| NCI-H1993 | 0.61 | 0.464 | 0.49 | 0.313 | 0.387 |
| NCI-H2009 | 0.276 | 0.269 | 0.252 | 0.218 | 0.0853 |
| NCI-H2023 | 0.557 | 0.266 | 0.0867 | 0.0826 | 0.0692 |
| NCI-H2085 | 0.608 | 0.607 | 0.604 | 0.594 | 0.314 |
| NCI-H2087 | 0.206 | 0.213 | 0.184 | 0.115 | 0.124 |
| NCI-H2126 | 0.576 | 0.568 | 0.625 | 0.594 | 0.443 |
| NCI-H2170 | 0.958 | 0.843 | 0.91 | 0.402 | 0.134 |
| NCI-H2228 | 0.378 | 0.232 | 0.102 | 0.113 | 0.144 |
| NCI-H2342 | 0.8 | 0.799 | 0.79 | 0.631 | 0.7 |
| NCI-H2347 | 0.335 | 0.275 | 0.351 | 0.288 | 0.321 |
| NCI-H2405 | 0.663 | 0.482 | 0.338 | 0.204 | 0.171 |
| NCI-H3122 | 0.23 | 0.283 | 0.173 | 0.177 | 0.106 |
| PC-3 [JPC-3] | 0.681 | 0.711 | 0.68 | 0.472 | 0.551 |
| PC-14 | 0.619 | 0.111 | 0.0838 | 0.101 | 0.0786 |
| RERF-LC-KJ | 0.837 | 0.864 | 0.737 | 0.404 | 0.244 |
| SK-LU-1 | 0.436 | 0.473 | 0.217 | 0.195 | 0.216 |
| SK-MES-1 | 0.562 | 0.401 | 0.221 | 0.179 | 0.168 |
| SW 900 | 0.587 | 0.513 | 0.208 | 0.128 | 0.153 |
| SW 1573 | 0.589 | 0.381 | 0.161 | 0.117 | 0.0829 |
| UMC-11 | 0.672 | 0.773 | 0.629 | 0.234 | 0.145 |
